Source: patent US10111933B2, “Use of growth hormone fragments” (Metabolic Pharmaceuticals Pty Ltd, priority 2011, dated 2018)
Entries after “also recorded” stand apart in the source; their conditions may differ. Ends that are not written are not given here.

How the values were obtained:
[1] = test system: contusion to the rectus femoris; test: Case study: corked quad, hematoma; assay type: in vivo, human; conditions: transdermal 600 mcg per dose twice daily, total 20 ml
Excerpt: The subject was a professional footballer. The athlete incurred a contusion to the rectus femoris adjacent to the central tendon. The MRI indicated an area of 2.0 cm area for the contusion. […] There was a minor degree of associated edema associated with the pathology. The MRI confirmed that there was fibre disruption but no true tear. The central tendon remained intact. The injury was an acute injury. The athlete identified discomfort on weight bearing movement and the mass was easily palpatable. Any hip flexion movement could induce discomfort and awareness of the injury. Although the muscle is not considered a dominant muscle in knee extension movement the affected area was painful and inducing discomfort with such work.
The subject undertook an intervention of AOD9604 (SEQ ID NO: 1) at 600 mcg per dose. They applied one ml twice daily. The transdermal application was at 600 mcg per ml. The total application was 20 ml.

[2] = test system: osteoblast and osteoclast formation; conditions: cited from earlier work
[3] = test system: fibre disruption at the junction of supraspinatus tendon insertion; test: Case study: shoulder tendon; assay type: in vivo, human; conditions: transdermal 600 mcg per dose twice daily, total 30 ml
Excerpt: The subject was a professional footballer. The athlete incurred some fibre disruption at the junction of supraspinatus tendon insertion. The MRI indicated an area of 1.0 cm within the disruptive pathology. […] Most of the affected area was the muscular portion of the junction. […] The athlete had been restricted in both the range of motion they could employ for the injured site as well as the amount of weight bearing activity they could engage for the area. They had been finding it difficult to abduct the arm at the shoulder joint.
The subject undertook an intervention of AOD9604 (SEQ ID NO: 1) at 600 mcg per dose. They applied one ml twice daily. The transdermal application was at 600 mcg per ml. The total application was 30 ml.

[4] = test system: Chondrocytes isolated from articular cartilage; test: Chondrocyte culture on collagen type II-coated filter, cartilage tissue formation; assay type: cell-based, calf; conditions: for toxicity to cells as determined by DNA content: 10 or 100 μg/ml, 2 weeks of treatment (3 weeks culture), FIG. 1
Description: Chondrocytes were isolated from articular cartilage obtained aseptically from calf metacarpal-carpal joints and seeded onto collagen type II-coated membrane inserts (Millipore™) (1.5×10^6 cells/12 mm diameter membrane). Chondrocytes were grown in Ham's F-12 supplemented with 5% fetal bovine serum (FBS) under standard culture conditions. After 5 days the serum was increased to 20%. Chondrocytes were then grown in the presence and absence of AOD9604 (SEQ ID NO: 1) (10 or 100 μg/ml) for 2 weeks (total culture time 3 weeks). Fresh AOD was added with each change of media.
The tissue was harvested and digested with papain (Sigma, 40 μg/ml) for 48 h at 65° C. DNA content was determined using the Hoechst 33258 dye binding assay (Polysciences) and fluorometry (excitation 365 nm, emission 458 nm). Proteoglycan content was determined by measuring the amount of sulphated glycosaminoglycans using the dimethylmethylene blue dye binding assay and spectrophotometry (525 nm). Collagen content was determined by measuring the hydroxyproline content of an aliquot of the papain digest hydrolyzed in 6N HCl for 18 h at 110° C. The hydroxyproline content was determined using the chloramine-T/Ehrlich's reagent assay and spectrophotometry (560 nm). The cellularity was quantified by measuring the DNA content using Hoescht 33258 dye binding assay (Polysciences) and fluorometry (excitation 365 nm, emission 458 nm).
(§1) All experiments were done three times and each condition was done in triplicate. The data was expressed as mean±SD. […]. Significance was determined using two way ANOVA followed by Tukey's post hoc test when multiple groups were being evaluated. T test was utilized if 2 groups were being compared. Significance was assigned at p values <0.05.

[5] = test system: Cartilage explants (native cartilage); test: Native cartilage explant culture; assay type: cell-based, calf
Description: Cartilage explants were taken from calf metacarpal-carpal joints and placed in culture in Ham's F-12 supplemented with 20% fetal bovine serum (FBS) in the presence and absence of AOD9604 (SEQ ID NO: 1) (10 or 100 μg/ml) for 1 week or (100 or 500 μg/ml) for 2 weeks.
The tissue was harvested and water content and dry weight measured. The tissue was then digested with papain (Sigma, 40 μg/ml) for 48 h at 65° C. DNA content was determined using the Hoechst 33258 dye binding assay (Polysciences) and fluorometry (excitation 365 nm, emission 458 nm). Proteoglycan content was determined by measuring the amount of sulphated glycosaminoglycans using the dimethylmethylene blue dye binding assay and spectrophotometry (525 nm). Collagen content was determined by measuring the hydroxyproline content of an aliquot of the papain digest hydrolyzed in 6N HCl for 18 h at 110° C. The hydroxyproline content was determined using the chloramine-T/Ehrlich's reagent assay and spectrophotometry (560 nm). The cellularity was quantified by measuring the DNA content using Hoescht 33258 dye binding assay (Polysciences) and fluorometry (excitation 365 nm, emission 458 nm.
as §1

C2C12 cells [6] = test: C2C12 myotube quantification (Bodipy staining); assay type: cell-based; conditions: over 72 hours, FIG. 11
Description: For myotube quantification the cells were stained with Bodipy (Invitrogen, 1/1000 PBS) according to the manufacturer's directions. The number of myotubes that developed over 72 hours was determined and expressed as a percent of total cells in culture (n=3, 100 cells/culture).
(§2) The data was expressed as mean±SD. The data was expressed as mean±SD. Significance was determined using two way ANOVA followed by Tukey's post hoc test when multiple groups were being evaluated. T test was utilized if 2 groups were being compared. Significance was assigned at p values <0.05.

[7] = test system: symptoms consistent with Clostridium tetani infection; parameters: species or system human; conditions: in vivo, sc
C2C12 cells [8] = test: C2C12 differentiation into myoblasts (myogenin staining); assay type: cell-based
Description: C2C12 (2×10^3 cells/cm^2) were grown in DMEM and 10% FBS. Differentiation was induced by replacing growth media with differentiation media which consists of DMEM supplemented with 2% horse serum. The cells were grown in the absence or presence of AOD9604 (10 or 100 μg/ml). The cells were fixed in 4% paraformaldehyde and co-stained for myogenin (a muscle specific muscle marker (transcription factor) 1/250 Tris-Triton X buffer) and Bodipy (cytoplasmic stain, Invitrogen, 1/1000 PBS). The number of cells stained for myogenin were counted in 4 random fields (up to 100 cells/field) (n=4). The percent of cells that stained positively for myogenin was calculated.
as §2

[9] = test system: rabbit collagenase model of osteoarthritis; test: Rabbit collagenase model of osteoarthritis, intra-articular administration; assay type: in vivo, New Zealand White Rabbit; conditions: 4 weekly intra-articular injections of 0.25 mg, 9 weeks post collagenase
Description: AOD9604 (SEQ ID NO: 1) was provided by Metabolic Pharmaceutical Pty Ltd.
Treatments groups: 32 rabbits were each given a 2 mg collagenase injection into their right knee joint, followed by a second injection 3 days later to induce osteoarthritis. After 4 weeks, the rabbits were divided into 4 groups of 8 for subsequent treatments.
Group 1 received 4 weekly injections of vehicle (disease control group).
Group 2 received 4 weekly injections of 6 mg of HA-hyuran-plus (HA positive control group).
Group 3 received 4 weekly injections of 0.25 mg of AOD9604 (AOD only group).
Group 4 received 4 weekly injections of both HA and AOD9604 (combination group).
Clinical observations were made by direct observation daily to assess lameness (as described in Kim et al., (2010) supra). At 9 weeks post initial collagenase injection the animals were euthanized.
Gross observation of the right and left knee joints was performed after dissection and scored for damage (as described in Kim et al., (2010) supra). Histological analysis of lateral and medial condyles from each joint was performed and scored.
A statistical analysis of the data was performed and the results are shown in FIGS. 13 (Group 1), 14 (Group 2), 15 (Group 3) and 16 (Group 4).

[10] = test system: tear to the long head of bicep femoris; test: Case study: hamstring muscle tear; assay type: in vivo, human; conditions: transdermal 600 mcg per dose twice daily, total 40 ml
Excerpt: The subject was a professional footballer. The athlete incurred at 2.0 cm tear to the long head of their bicep femoris. […] Some fibre disruption was noted below the tendon junction coming from the insertion. The length of the tear was 1.5 cm. The fusiform belly region around the injury was highly inflamed.
The subject undertook an intervention of AOD9604 (SEQ ID NO: 1) at 600 mcg per dose. They applied one ml twice daily. The transdermal application was at 600 mcg per ml. The total application was 40 ml.

1.5 cm tear on soleus = test: Case study: calf muscle (soleus) tear; assay type: in vivo, human; conditions: transdermal 600 mcg per dose twice daily, total 20 ml
Excerpt: The subject was a professional footballer. The athlete incurred at 1.5 cm tear on their soleus near the adjacent aponeurosis to the gastrocnemius. […] A 1.5 cm tear is considered a moderately large tear for the region. […] The fibre tears were directional with the orientation of the fibres. The length of the tear was 1.5 cm.
The subject undertook an intervention of AOD9604 (SEQ ID NO: 1) at 600 mcg per dose. He applied one ml twice daily. The transdermal application was at 600 mcg per ml. The total application was 20 ml.

C2C12 cells [11] = test: C2C12 cell proliferation (DNA content); assay type: cell-based; conditions: 10 and 100 μg/ml, 3 days, FIG. 12
Description: C2C12 were grown in monolayer culture in DMEM (high glucose) supplemented with 10% fetal bovine serum under standard cell culture conditions. The cells were passaged at 60-70% confluence. The effect of AOD9604 (SEQ ID NO: 1) on cell proliferation was determined by growing the cells (3000 cells/cm^2) in the absence or presence of AOD9604 (10 and 100 μg/ml) for 3 days. The DNA content was then quantified. The cells were digested by papain and DNA content determined using the Hoechst 33258 dye binding assay (Polysciences) and fluorometry (excitation 365 nm, emission 458 nm).
as §2

IGF-1 = conditions: effective dose, clinical trials; cited from earlier work
C57Bl/6J (Ob/Ob) mouse = conditions: cited from earlier work

YLRIVQCRSVEGSCGF (cysteine pairing not given here) [AOD9604]
pain or discomfort on resumed weight bearing [1]: no immediate pain or discomfort
resolution of injury [1]: resolved in two weeks
return to weight bearing activity [1]: returned to full weight bearing activity
subsequent MRI [1]: return to full anatomical integrity
formation of osteoclasts [2]: without an increase
osteoblast formation [2]: increased
residual pain or discomfort [3]: no residual pain or discomfort
resolution of injury [3]: resolved in three weeks
return to weight bearing activities [3]: returned to full weight bearing activities and rotation activity
subsequent MRI [3]: full integrity had returned to the junctional area
proteoglycan content of the tissue ([4]; 100 μg/ml, 3 weeks of culture, FIG. 2): increasing
collagen content of the tissue ([4]; 100 μg/ml, 3 weeks of culture, FIG. 3): increasing
toxicity to cells as determined by DNA content [4]: not toxic
toxicity to cells as determined by DNA content ([4]; listed as AOD): does not have a toxic effect on cells
effect on native cartilage ([5]; 500 μg/ml, FIGS. 5-8): no effect
proteoglycan content of native cartilage ([5]; FIGS. 5 and 7): does not affect
collagen content of native cartilage ([5]; FIGS. 6 and 8): does not affect
toxicity / DNA content of native cartilage ([5]; up to 500 μg/ml, 2 weeks of treatment, FIG. 4, listed as AOD): not toxic; also recorded: no effect
formation of myotubes (C2C12 cells [6]): no affect
formation of myotubes (C2C12 cells [6]; listed as AOD): does not enhance
pain [7]: considerably reduced
resolution of symptoms [7]: fully resolved at around day eight
return to activity [7]: resumed full running and moderate weight lifting activity on day eight
differentiation of C2C12 cells into myoblasts (C2C12 cells [8]; 3 days (72 hours), doses as low as 10 μg/ml, FIG. 10): enhances
differentiation of C2C12 cells into myoblasts (C2C12 cells [8]; 3 days (72 hours), doses as low as 10 μg/ml, FIG. 10, listed as AOD): induces differentiation
differentiation of C2C12 cells into myoblasts (C2C12 cells [8]; after 24 hours of treatment, FIG. 9): induces differentiation
regeneration compared to control (histological analysis of condyles) [9]: has regenerative power compared to control
follow up MRI [10]: full integrity had returned to the bicep femoris long head
residual pain or discomfort [10]: no residual pain or discomfort
resolution of injury [10]: resolved in three weeks
return to weight bearing activities [10]: returned to full weight bearing activities
follow up MRI (1.5 cm tear on soleus): full integrity had returned to the injury
residual pain or discomfort (1.5 cm tear on soleus): no residual pain or discomfort
resolution of injury (1.5 cm tear on soleus): resolved in two weeks
return to weight bearing activities (1.5 cm tear on soleus): returned to full weight bearing activities
cell proliferation (C2C12 cells [11]): did not affect
cell proliferation (C2C12 cells [11]; listed as AOD): does not enhance myotube Formation or alter cell proliferation
plasma level of IGF-1 (IGF-1): did not elevate

hGH 177-191: synthetic peptide corresponding to amino acid residues 177-191 of human growth hormone sequence (LRIVQCRSVEGSCGF; UniProt P01241 203-217, looked up, fragment)
adipose tissue mass (C57Bl/6J (Ob/Ob) mouse): reduce
body weight gain (C57Bl/6J (Ob/Ob) mouse): reduce
